Measurements from PMC9241695, “Selective Metal Chelation by a Thiosemicarbazone Derivative Interferes with Mitochondrial Respiration and Ribosome Biogenesis in Candida albicans” (Microbiology Spectrum, 2022).
≈ marks a conversion by molar mass, not a printed value.

Legend:
[1] = tested on: C. albicans SC5314; test: qPCR of genes associated with ribosome biogenesis; type: cell-based, Candida albicans; details: CPX 0.5 or 2 μg/mL 8 h; DFO 64 µg/mL 6 h; TPEN 0.05 or 0.2 μg/mL 6 h
Method: Determination of SOD activity. SOD activity was measured using the Superoxide Dismutase Activity Assay Kit (Njjcbio, Nanjing, China) following the manufacturer's instructions. An overnight culture of C. albicans SC5314 was adjusted to 1 × 10^7 cells/mL with RPMI1640 medium and treated with 19ak at a final concentration of 0, 0.125, 0.25, 0.5, or 1 μg/mL for 6 h. After collection by centrifugation, the cells were broken by glass beads in extraction buffer and centrifuged at 4°C. The absorbance of the supernatant of each sample was measured with a microplate reader at450 nm.
Determination of catalase (CAT) activity. CAT activity was measured by using a Catalase Assay Kit (Solarbio, Beijing, China) following the manufacturer's instructions. An overnight culture of C. albicans SC5314 was adjusted to 1 × 10^6 cells/mL with RPMI1640 medium and treated as described above for SOD activity.
The decomposition of H2O2 is directly accompanied by a decrease in absorbance at 240 nm, and the difference in absorbance per unit time (ΔA240) is a measure of […]
Quantitative real-time polymerase chain reaction (qPCR) analysis. C. albicans SC5314 cells (1 × 10^6 cells/mL) were incubated with or without 19ak (0.5,2 […]
Total RNA was extracted using the hot phenol method, and the RNA quality was analyzed using a spectrophotometer (Eppendorf, Hamburg, Germany). The RNA was converted to cDNA using a cDNA Reverse
Transcription kit (Accurate Biotechnology, Hunan, China). PCR detection based on SYBR Green was performed on an Eppendorf real-time PCR system (Eppendorf, […]
Drug resistance study. Drug resistance studies were carried out by repeatedly treating C. albicans with an antifungal agent followed by MIC determination using […]

[2] = tested on: C. albicans SC5314; test: Respiratory activity by CTC staining; type: cell-based, Candida albicans; details: 6 h, 1 mM CTC; 19ak 0.125-1 μg/mL, TPEN 0.05-0.4 μg/mL
Method: h (for C. albicans, C. krusei, C. tropicalis, C. parapsilosis) or 48 h (for C. neoformans, A. fumigatus). The MIC was determined based on visible growth inhibition compared with the control. All experiments were performed in duplicate.
Cytotoxicity testing. The cell lines HK2 and 16HBE were used to evaluate the cytotoxicity of 19ak, 19k and 19t. Cells in DMEM containing 10% fetal bovine serum (Gibco) were seeded in 96-well tissue culture plates at a cell density of 1 × 10^4 cells/mL and incubated for 24 h to allow adhesion. The supernatant was then replaced with fresh DMEM containing various concentrations of 19ak, 19k and 19t. […]
The effects of the compounds on cell proliferation were detected by measuring the absorbance at 570 nm in a microplate reader (BioTek, VT, USA). […]
the fluorescent complex […] (CTF) is commonly used to indicate the intensity of microbial respiration. C. albicans SC5314 treated with 19ak was stained with 1 mM CTC for 30 min, followed by flow cytometry analysis of respiratory activity based on fluorescence intensity. Images of cells were obtained using a fluorescence microscope (IX71, Olympus, Tokyo, Japan). […] After an additional 2 h of incubation, OD450 in each well was detected with a microplate reader. […]
Mitochondrial complex activity was expressed as nmol/min/mg protein. […]

[3] = tested on: C. albicans SC5314; test: Antifungal susceptibility testing, microbroth dilution MIC; type: cell-based; details: Candida albicans, SC5314, read-out: MIC against C. albicans SC5314 (Fig. S2 legend)
Source text: Compound library. The thiosemicarbazone derivatives Triapine and COTI-2 were purchased from Med Chem Express (MCE). The other 87 thiosemicarbazones used in this study were previously synthesized by our collaborators (1, 2). Their structures are shown in Table 1 and Table S1 to help the reader clearly understand the relationship between structure and activity.
Strains and culture conditions. Clinically derived C. albicans isolates, including G5, F5, and Gu5, were kindly provided by Professor Joachim Morschhäuser of the University of Würzburg. Other clinical C. albicans isolates were kindly donated by Professor Qingguo Qi of Shandong University and Qianfoshan Hospital of Shandong Province Other Candida strains were obtained from Jinan Central Hospital.
The zap1 mutant and its complemented strain were kindly provided by Professor Aaron P. Mitchell of Carnegie Mellon University (3). The C. neoformans strains used in this study was kindly donated by Professor Guojian Liao of Southwest University and A. fumigatus strain used in this study was provided by Professor Ling Lu of Nanjing Normal University. Before in vitro and in vivo experiments, all C. albicans strains were grown on YPD agar plates. After culturing at 30°C for 24 h, colonies of each strain were cultured in liquid YPD medium at 30°C with continuous shaking […]
Antifungal susceptibility testing. To determine in vitro antifungal activities, the microbroth dilution method was carried out in RPMI1640 medium according to the guidelines of the Clinical and Laboratory Standards Institute (4, 5). The initial concentration in RPMI1640 medium was 1 × 10^3 CFU/mL for the C. albicans and C. neoformans suspensions but 1 × 10^4 CFU/mL for A. fumigatus. The range of final drug concentrations was 0.0156–64 μg/mL. The plates were incubated at35°C for 24 […]
h (for C. albicans, C. krusei, C. tropicalis, C. parapsilosis) or 48 h (for C. neoformans, A. fumigatus). The MIC was determined based on visible growth inhibition compared with the control. All experiments were performed in duplicate. […]

## c1ccc(CN(CCN(Cc2ccccn2)Cc2ccccn2)Cc2ccccn2)nc1 [TPEN, N,N,N′,N′-tetrakis (2-pyridylmethyl) ethylenediamine, reference compound]
[1]
  Expression of genes associated with ribosome biogenesis (qPCR): downregulated
[2]
  Mitochondrial respiratory activity (CTC fluorescence intensity): failed to observe reduced mitochondrial respiration
[3]
  MIC: 0.05 µg/mL (≈ 0.118 µM)
